Five cell lines from the supplement of paper PMC10307832 can be followed below.

Holding throughout (assay): relative viability (nuclei count vs DMSO), 5 days (fraction); higher = more cells survive
Compound in test [1]: C1CCC(CC1)N(CCNCCC2=C3C(=C(C=C2)O)NC(=O)CO3)C(=O)CCNCCC4=CC(=C(C=C4)Cl)Cl [AZ505] + CC(=O)c1c(C)c2cnc(Nc3ccc(N4CCNCC4)cn3)nc2n(C2CCCC2)c1=O [Palbociclib] (partner 0.5 µM)
A digest of the protocol: (§1)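 Lung cancer cell lines in 1536-well plates got either a single drug or a fixed anchor-drug dose together with five library-drug doses (not always all listed) in √10 steps, by pin tool, on the day after seeding. Nuclei were counted after 5 days, and relative viability is the treated-to-vehicle ratio of nuclei counts. Values are medians of duplicate plates.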

Compound in test [2]: Cn1c(=O)n(-c2ccc(C(C)(C)C#N)cc2)c2c3cc(-c4cnc5ccccc5c4)ccc3ncc21 [Dactolisib] + CC(=O)c1c(C)c2cnc(Nc3ccc(N4CCNCC4)cn3)nc2n(C2CCCC2)c1=O [Palbociclib] (partner 0.5 µM)
In short, it runs like this:
as §1

Compound in test [3]: Cn1c(=O)n(-c2ccc(C(C)(C)C#N)cc2)c2c3cc(-c4cnc5ccccc5c4)ccc3ncc21 [Dactolisib] + CS(=O)(=O)N1CCN(Cc2cc3nc(-c4cccc5[nH]ncc45)nc(N4CCOCC4)c3s2)CC1 [Pictilisib] (partner 1 µM)
A digest of the protocol:
as §1

Compound in test [4]: Cn1c(=O)n(-c2ccc(C(C)(C)C#N)cc2)c2c3cc(-c4cnc5ccccc5c4)ccc3ncc21 [Dactolisib] + O=C(c1cc(Cc2n[nH]c(=O)c3ccccc23)ccc1F)N1CCN(C(=O)C2CC2)CC1 [Olaparib] (partner 8 µM)
A digest of the protocol: as §1

For the cell line NCI-H2228, the relative viability worked out at 0.554 in test [1] (first compound 0.08 µM); 0.723 in test [1] (first compound 0.253 µM); 0.69 in test [1] (first compound 0.8 µM); 0.768 in test [1] (first compound 2.53 µM); 0.918 in test [1] (first compound 8 µM); 0.882 in test [2] (first compound 0.002 µM). Also, the relative viability was 0.725 in test [2] (first compound 0.006325 µM); 0.638 in test [2] (first compound 0.02 µM); 0.197 in test [2] (first compound 0.06325 µM); 0.147 in test [2] (first compound 0.2 µM); 0.355 in test [3] (first compound 0.002 µM); 0.291 in test [3] (first compound 0.006325 µM). Moreover, the relative viability turned out to be 0.248 in test [3] (first compound 0.02 µM); 0.173 in test [3] (first compound 0.06325 µM); 0.222 in test [3] (first compound 0.2 µM); 1.01 in test [4] (first compound 0.002 µM); 0.486 in test [4] (first compound 0.006325 µM); 0.326 in test [4] (first compound 0.02 µM). Moreover, the figures for the relative viability in test [4] (first compound 0.06325 µM) and in test [4] (first compound 0.2 µM) were 0.177 and 0.104, respectively.
Regarding NCI-H2347, the relative viability was found to be 0.37 in test [1] (first compound 0.08 µM); 0.451 in test [1] (first compound 0.253 µM); 0.38 in test [1] (first compound 0.8 µM); 0.448 in test [1] (first compound 2.53 µM); 0.485 in test [1] (first compound 8 µM); 0.505 in test [2] (first compound 0.002 µM). Besides, the relative viability in test [2] (first compound 0.006325 µM) came out at 0.448; in test [2] (first compound 0.02 µM), 0.401; in test [2] (first compound 0.06325 µM), 0.402; in test [2] (first compound 0.2 µM), 0.358; in test [3] (first compound 0.002 µM), 0.49; in test [3] (first compound 0.006325 µM), 0.599. Further, the relative viability in test [3] (first compound 0.02 µM) was found to be 0.482; in test [3] (first compound 0.06325 µM), 0.389; in test [3] (first compound 0.2 µM), 0.237; in test [4] (first compound 0.002 µM), 0.693; in test [4] (first compound 0.006325 µM), 0.54; in test [4] (first compound 0.02 µM), 0.531. For the same cell line, the relative viability in test [4] (first compound 0.06325 µM) stood at 0.471; in test [4] (first compound 0.2 µM) it was 0.407.
On to NCI-H2405, for which the relative viability in test [1] (first compound 0.08 µM) stood at 0.427; in test [1] (first compound 0.8 µM), 0.441; in test [1] (first compound 2.53 µM) it was 0.463; in test [1] (first compound 8 µM), 0.426; in test [2] (first compound 0.002 µM), 0.471; in test [2] (first compound 0.006325 µM), 0.542. Also, the relative viability worked out at 0.449 in test [2] (first compound 0.02 µM); 0.314 in test [2] (first compound 0.06325 µM); 0.291 in test [2] (first compound 0.2 µM); 0.343 in test [3] (first compound 0.002 µM); 0.475 in test [3] (first compound 0.006325 µM); 0.423 in test [3] (first compound 0.02 µM). Besides, the relative viability was 0.311 in test [3] (first compound 0.06325 µM); 0.278 in test [3] (first compound 0.2 µM); 0.866 in test [4] (first compound 0.002 µM); 0.86 in test [4] (first compound 0.006325 µM); 0.858 in test [4] (first compound 0.02 µM); 0.5 in test [4] (first compound 0.06325 µM). For the same cell line, the relative viability in test [4] (first compound 0.2 µM) came out at 0.409.
On to NCI-H3122, for which the relative viability in test [1] (first compound 0.08 µM) was 0.212; in test [1] (first compound 0.253 µM), 0.228; in test [1] (first compound 0.8 µM) it was 0.18; in test [1] (first compound 2.53 µM) it was 0.19; in test [1] (first compound 8 µM), 0.197; in test [2] (first compound 0.002 µM) it was 0.18. For the same cell line, the relative viability in test [2] (first compound 0.006325 µM) came to 0.198; in test [2] (first compound 0.02 µM), 0.173; in test [2] (first compound 0.06325 µM), 0.16; in test [2] (first compound 0.2 µM), 0.137; in test [3] (first compound 0.002 µM) it was 0.59; in test [3] (first compound 0.006325 µM), 0.608. Further, the relative viability stood at 0.575 in test [3] (first compound 0.02 µM); 0.442 in test [3] (first compound 0.06325 µM); 0.336 in test [3] (first compound 0.2 µM); 0.564 in test [4] (first compound 0.002 µM); 0.557 in test [4] (first compound 0.006325 µM); 0.659 in test [4] (first compound 0.02 µM). Moreover, the relative viability in test [4] (first compound 0.06325 µM) came to 0.629; in test [4] (first compound 0.2 µM), 0.641.
With PC-3 [JPC-3], the relative viability in test [1] (first compound 0.08 µM) is 0.527; in test [1] (first compound 0.8 µM), 0.521; in test [1] (first compound 2.53 µM) it was 0.566; in test [1] (first compound 8 µM) it was 0.568; in test [2] (first compound 0.002 µM), 0.596; in test [2] (first compound 0.006325 µM) it was 0.544. For the same cell line, the relative viability in test [2] (first compound 0.02 µM) amounted to 0.59; in test [2] (first compound 0.06325 µM), 0.511; in test [2] (first compound 0.2 µM), 0.418; in test [3] (first compound 0.002 µM) it was 0.78; in test [3] (first compound 0.006325 µM), 0.784; in test [3] (first compound 0.02 µM), 0.696. Besides, the relative viability in test [3] (first compound 0.06325 µM) came to 0.697; in test [3] (first compound 0.2 µM), 0.572; in test [4] (first compound 0.002 µM), 1.17; in test [4] (first compound 0.006325 µM), 1.07; in test [4] (first compound 0.02 µM), 1.21; in test [4] (first compound 0.06325 µM), 1.02. Also, the relative viability in test [4] (first compound 0.2 µM) was found to be 0.963.
